Measured values: patent US20140045858A1, “COMPOUND P[…] ALZHEIMER'S DISEASE AND PREPARATION METHOD THEREOF” (priority 2011, published 2014)

Assays:
[1] = tested on: rats' cholinergic and oxidative systems; assay: Pharmacodynamic study, overall conclusions (rat amnesia model); type: in vivo; conditions: conclusion from Groups 3, 6 and 7, single-component patches
Excerpt: Finally, the activities/contents of AChE, SOD, GSH-Px and MDA in Groups 3-5 approximate to those in the blank control group, that is to say, the levels of oxidase in rat's cholinergic and oxidative systems in the various delivery groups are close to normal level.

[2] = oral delivery; cited from earlier work

| Structure (SMILES) | anti-oxidation effect [1] | function of anti-cholinergic damage [1] | half life (t½) [2] [h] |
| --- | --- | --- | --- |
| C/C=C1\[C@H]2C=C(C)C[C@]1(N)c1ccc(=O)[nH]c1C2 [huperzine A] | certain effect of anti-oxidation | certain function of anti-cholinergic damage |  |
| Cc1nc(C)c(C)nc1C.O=P(O)(O)O [tetramethylpyrazine phosphate] | very strong anti-oxidation effect | relatively poor function of anti-cholinergic damage | 2.89 |
